Source: patent publication US20030104473A1, “Common ligand mimics: benzimidazoles” (priority 2001, published 2003)
Read-outs that look alike come from different tables or passages of the source.

How the values were obtained:
[1] = target: dihydrodipicolinate reductase (DHPR) (Escherichia coli, UniProt P04036); test: DHPR kinetic assay, spectrophotometric oxidation of NADPH at 340 nm; assay type: biochemical
Experimental: For DHPR analysis, the compounds were screened using a kinetic protocol that spectrophotometrically evaluates oxidation of NADPH.
Stock solutions of each of the reagents were prepared in the following concentrations. Dilutions of the stock solutions were prepared prior to running the assay in the concentrations indicated below. DHPR was diluted in 10 mM HEPES at a pH of 7.4. DHPS (dihydrodipicolinate synthase) was not diluted and was stored in eppindorf tubes.
The L-ASA (L-aspartate semialdehyde) solution was prepared in the following manner. […] stock solution of ASA was prepared. 100 μl of the ASA stock solution was mixed with 150 μl of concentrated NaHCO3 and 375 μl of H2O. For use in the assay, 28.8 mM L-ASA was equal to 625 μl of the solution. The L-ASA stock Aft solution was kept at a temperature of −20° C. After dilution, the pH of the 28.8 mM solution was checked and maintained between 1 and 2.
The DHPS reaction was monitored at 340 nm prior to and after addition of the inhibitor to detect background reaction with the inhibitor. The solution for background detection was a 945 μl solution containing 0.1 HEPES (pH 7.8), 1 mM pyruvate, 6 μM NADPH, 40 μM L-ASA, and 7 μl of 1 mg/ml DHPS at 25° C. in the volumes provided above. The sample solution was then mixed and incubated for 10 minutes. Next, 500 nM solutions of the inhibitors and enough DMSO to provide a final DMSO concentration of 5% of the total assay volume were added. The solution was mixed and incubated for an additional 6 minutes.
In DHPR samples, 5 μl of the diluted DHPR enzyme were added. The sample was mixed for 20 seconds and then the reaction was run for 10 minutes. After a 50 second lag, the samples were read in a Cary spectrophotometer at 340 nm. Reading of the samples was continued until 300 seconds. Cuvette #1 contained the control reaction (no inhibitor), and cuvette #2 contained the positive control reaction in which Cibacron Blue at 2.58 μM was substituted for inhibitor to yield 70 to 80% inhibition. The substrate was kept at a level at least 10 times the Km. The final concentration of L-ASA was about 1 mM.

[2] = target: T1, lactate dehydrogenase (LDH) (Oryctolagus cuniculus, UniProt P13491); test: LDH kinetic assay, spectrophotometric oxidation of NADH at 340 nm; assay type: biochemical, Rabbit Muscle; conditions: Cibacron Blue at 10.3 μM; read-out: inhibition of LDH (positive control)
T1 construct: 10 μl of LDH from Rabbit Muscle; from tissue; host or cells: rabbit muscle
Experimental: For LDH analysis, the compounds were screened using a kinetic protocol that spectrophotometrically evaluates oxidation of NADH.
(§1) Stock solutions of each of the reagents were prepared in the following concentrations. Dilutions of the stock solutions were prepared prior to running the assay in the concentrations indicated below.
The LDH reaction was monitored at 340 nm prior to and after addition of the inhibitor to detect background reaction with the inhibitor. Solutions of 100 μl of the inhibitors in DMSO were prepared to provide a final DMSO concentration of 5% of the total assay volume. These solutions were incubated for 6 minutes at 25° C. in a 990 μl of a solution containing 0.1 M HEPES, pH 7.4, 10 μM NADH, and 2.5 mM of pyruvate. The reaction was then initiated with 10 μl of LDH from Rabbit Muscle (0.5 μg/ml; 1:2000 dilution of 1.0 mg/ml). After the enzyme was added, the solution was mixed for 20 seconds, and the reaction was run for 10 minutes. After a 50 second lag, the samples were read in a Cary spectrophotometer at 340 nm. Reading of the samples was continued until 300 seconds. Cuvette #1 contained the control reaction (no inhibitor), and cuvette #2 contained the positive control reaction in which Cibacron Blue at 10.3 μM was substituted for inhibitor to yield 50 to 70% inhibition. The substrate was kept at a level at least 10 times the Km.

[3] = target: 1-deoxy-D-xylulose-5-phosphate reductase (DOXPR) (Escherichia coli, UniProt P45568); test: DOXPR kinetic assay, spectrophotometric oxidation of NADPH at 340 nm; assay type: biochemical; conditions: Cibacron Blue at 10.32 μM; read-out: inhibition of DOXPR (positive control)
1-deoxy-D-xylulose-5-phosphate reductase (DOXPR), sequence (P45568 whole entry): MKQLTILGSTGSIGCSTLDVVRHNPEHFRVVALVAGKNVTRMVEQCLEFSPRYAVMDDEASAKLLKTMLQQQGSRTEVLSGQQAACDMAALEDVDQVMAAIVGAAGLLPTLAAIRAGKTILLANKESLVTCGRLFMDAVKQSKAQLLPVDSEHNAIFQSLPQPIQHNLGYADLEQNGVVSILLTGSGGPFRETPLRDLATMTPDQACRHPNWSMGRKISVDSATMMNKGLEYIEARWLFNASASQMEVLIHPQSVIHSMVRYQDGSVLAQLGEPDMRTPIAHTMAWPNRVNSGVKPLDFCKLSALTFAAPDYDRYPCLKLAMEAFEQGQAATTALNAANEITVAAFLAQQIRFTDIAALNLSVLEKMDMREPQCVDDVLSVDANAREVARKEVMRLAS
Experimental: For DOXPR analysis, the compounds were screened using a kinetic protocol that spectrophotometrically evaluates oxidation of NADPH.
Stock solutions of each of the reagents were prepared in the following concentrations. Dilutions of the stock solutions were prepared prior to running the assay in the concentrations indicated below. DOXPR was diluted in 10 mM HEPES at a pH of 7.4.
The DOXPR reaction was monitored at 340 nm prior to and after addition of the inhibitor to detect background reaction with the inhibitor. Solutions of the inhibitors in DMSO were prepared to provide a final DMSO concentration of 5% of the total assay volume. These solutions were incubated for 6 minutes at 25° C. in a 990 μl of a solution containing 0.1 M HEPES, pH 7.4, 1 mM MnCl21.15 mM DOXP, and 8 μM NADPH. The oxidation reaction was then initiated with 10 μl of DOXP reductoisomerase (10 μg/ml). After the enzyme was added, the solution was mixed for 20 seconds, and the reaction was run for 10 minutes. After a 50 second lag, the samples were read in a Cary spectrophotometer at 340 nm. Reading of the samples was continued until 300 seconds. Cuvette #1 contained the control reaction (no inhibitor), and cuvette #2 contained the positive control reaction in which Cibacron Blue at 10.32 μM was substituted for inhibitor to yield 70 to 80% inhibition. The substrate was kept at a level at least 10 times the Km.

[4] = target: T2, alcohol dehydrogenase (ADH) (Saccharomyces cerevisiae, UniProt P00330); test: ADH kinetic assay, spectrophotometric reduction of NAD+ at 340 nm; assay type: biochemical, Bakers Yeast; conditions: Cibacron Blue at 15.5 μM; read-out: inhibition of ADH (positive control)
T2 construct: 10 μl of ADH from Bakers Yeast; host or cells: baker's yeast
T2 sequence (P00330 1-348): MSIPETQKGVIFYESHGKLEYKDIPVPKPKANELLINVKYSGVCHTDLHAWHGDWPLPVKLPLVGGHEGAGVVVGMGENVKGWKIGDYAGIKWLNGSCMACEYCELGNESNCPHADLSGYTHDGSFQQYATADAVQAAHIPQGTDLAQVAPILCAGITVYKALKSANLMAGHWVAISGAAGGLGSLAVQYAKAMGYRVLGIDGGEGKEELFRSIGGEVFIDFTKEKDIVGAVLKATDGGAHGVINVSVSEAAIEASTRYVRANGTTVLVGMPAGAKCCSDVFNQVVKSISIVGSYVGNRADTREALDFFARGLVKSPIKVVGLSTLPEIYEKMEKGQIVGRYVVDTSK
Experimental: For ADH analysis, the compounds were screened using a kinetic protocol that spectrophotometrically evaluates reduction of NAD+.
as §1
The ADH reaction was monitored at 340 nm prior to and after addition of the inhibitor to detect background reaction with the inhibitor. Solutions of 100 μl of the inhibitors in DMSO were prepared to provide a final DMSO concentration of 5% of the total assay volume. These solutions were incubated for 6 minutes at 25° C. in a 990 μl of a solution containing 0.1 M HEPES, pH 8.0, 80 μM NAD+, and 130 mM of ethanol. The reaction was then initiated with 10 μl of ADH from Bakers Yeast ([…]; 1:400 dilution of 1.0 mg/ml). After the enzyme was added, the solution was mixed for 20 seconds, and the reaction was run for 10 minutes. After a 50 second lag, the samples were read in a Cary spectrophotometer at 340 nm. Reading of the samples was continued until 300 seconds. Cuvette #1 contained the control reaction (no inhibitor), and cuvette #2 contained the positive control reaction in which Cibacron Blue at 15.5 μM was substituted for inhibitor to yield 50 to 60% inhibition. The substrate was kept at a level at least 10 times the Km. The final concentration of […] was about 2.5 mM.
Where only a simple read was desired, as in the case of NAD+ concentration determination, 13 μl (10 M stock) of ethanol was used to drive the reaction, and 10 μl of pure enzyme (1 mg/ml) was used. NAD+was soluble at 2 mM, which allowed the concentration determination step to be skipped. In this situation, the procedure was as follows. All of the ingredients except for the enzyme were mixed together. The solution was mixed well and the absorbance at 340 nm read. The enzyme was added and read again at OD 340 after the absorbance stopped changing, generally 10 to 15 minutes after the enzyme was added.

[5] = Example 14, common ligand mimics (FIG. 8), read-out: IC50 for DHPR
[6] = Example 15, bi-ligands (FIG. 9), read-out: IC50 value for dihydrodipicolinate reductase (DHPR)

dihydrodipicolinate reductase (DHPR), sequence (P04036 whole entry): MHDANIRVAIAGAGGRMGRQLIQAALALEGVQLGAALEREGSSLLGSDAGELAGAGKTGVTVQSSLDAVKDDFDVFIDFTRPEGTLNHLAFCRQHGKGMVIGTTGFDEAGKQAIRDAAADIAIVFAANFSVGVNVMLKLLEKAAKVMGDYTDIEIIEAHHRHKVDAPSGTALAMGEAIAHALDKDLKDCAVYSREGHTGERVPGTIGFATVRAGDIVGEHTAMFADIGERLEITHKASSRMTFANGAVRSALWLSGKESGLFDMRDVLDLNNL

| Structure (SMILES) | IC50 [1, 5] [µM] | IC50 [1, 6] [µM] | further results |
| --- | --- | --- | --- |
| COC(=O)c1ccc(-c2ccc(-c3nc4cc([N+](=O)[O-])ccc4[nH]3)o2)cc1 [4-[5-(5-nitro-1H-benzoimidazol-2-yl)-furan-2-yl]-benzoic acid methyl ester] | > 25 | – | – |
| Nc1c(S(=O)(=O)O)cc(Nc2ccc(Nc3nc(Cl)nc(Nc4ccccc4S(=O)(=O)O)n3)c(S(=O)(=O)O)c2)c2c1C(=O)c1ccccc1C2=O [Cibacron Blue, reference compound] | – | – | inhibition at 10.3 µM [2]: 50 to 70%; inhibition at 10.32 µM [3]: 70 to 80%; inhibition at 15.5 µM [4]: 50 to 60%; inhibition at 2.58 µM ([1]; Cibacron Blue at 2.58 μM, read-out: inhibition of DHPR (positive control)): 70 to 80% |
| Cc1cccc2[nH]c(-c3ccc(-c4ccc(C(=O)O)cc4)o3)nc12 [compound 6a, 4-[5-(4-methyl-1H-benzimidazol-2-yl)-furan-2-yl]-benzoic acid] | > 100 | – | – |
| Cc1ccc2[nH]c(-c3ccc(-c4ccc(C(=O)O)cc4)o3)nc2c1 [compound 6c, 4-[5-(5-methyl-1-benzoimidazol-2-yl)furan-2-yl]-benzoic acid] | > 60 | – | – |
| O=C(NCCSc1cc(C(=O)O)nc(C(=O)O)c1)c1ccc(-c2ccc(-c3nc4cc([N+](=O)[O-])ccc4[nH]3)o2)cc1 [compound 21a, 4-(2-{4-[5-(5-nitro-1H-benzoimidazol-2-yl)-furan-2-yl]-benzoylamino)-ethylsulfanyl)-pyridine-2,6-dicarboxylic acid] | – | ~0.758 | – |
| O=C(NCCSc1cc(C(=O)O)nc(C(=O)O)c1)c1ccc(-c2ccc(-c3nc4ccccc4[nH]3)o2)cc1 [compound 21b, 4-(2-{4-[5-(1H-benzoimidazol-2-yl)-furan-2-yl]-benzoylamino}-ethylsulfanyl)-pyridine-2,6-dicarbolxylic acid] | – | > 1.6 | – |
